Data taken from article PMC10321576, “Cyclic peptides target the aromatic cage of a PHD-finger reader domain to modulate epigenetic protein function” (Chemical Science, 2023).
Peptide text beside a SMILES is read from it.

Biological target: T1, KDM7B PHD-finger (Homo sapiens, UniProt Q9UPP1)
T1 construct: KDM7B 1-66; His-tag (C); made in house
T1 sequence (Q9UPP1 1-66 isoform Q9UPP1-2): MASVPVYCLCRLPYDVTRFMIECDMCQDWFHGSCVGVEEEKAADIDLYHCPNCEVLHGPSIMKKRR
Assay: Protein NMR 1H-15N HSQC chemical shift perturbation
Type: binding
Description: To better elucidate OC9 interactions at a single residue level, we conducted protein NMR studies using isotopically labelled PHD-finger.[48] Comparison of ^1H–^15N HSQC spectra for isotopically labelled apo and OC9-bound protein (Fig. 4a), independently assigned using ^13C,^15N 3D experiments (Fig. S21, NMR ESI ^†), identified 24 out of 66 protein residues with significant (standard deviation, s > 1) chemical shift perturbation (CSP, Δδ) of their backbone amides (Fig. 4b).
(a) ^1H–^15N HSQC of KDM7B PHD-finger in the apo (black) or bound forms with OC9 (purple, 1 : 1) or H3_1–21K4me3 (green, 3 : 1). (b) ^1H and ^15N chemical shift changes for apo vs. + OC9 were combined and weighted to give chemical shift perturbation (CSP) (Δδ) values. Standard deviation (σ) of Δδ are indicated (>1 pink, >2 purple). (c) TALOS+ predicts similar secondary structure elements in apo and OC9-bound solution protein complexes (light grey) to those found in PDB ID 3KV4 (dark grey). […] (e) Shielded ^1H-NMR signals centred around −0.5 ppm belonging to the OC9 V10 γ-methyl groups are observed in some OC9–PHD complexes, but not in apo protein, or complexes with OC9 V10A and OC9 V10DV. The V10^OC9 γ-methyl signals have NOE interactions (black semi-circles) with the W29^PHD indole, which itself is shielded upon binding of OC9 (indicated by ΔδH values).

- CSP His49, OC9 vs OC9 L3A (residue His49 amide, PHD+OC9 vs PHD+OC9 L3A): 0.0165
- CSP His57 (residue His57 amide 1H-15N, Free PHD vs PHD+peptide): 0.0486
- CSP His57, OC9 vs OC9 L3A (residue His57 amide, PHD+OC9 vs PHD+OC9 L3A): 0.0065
- CSP Ile21 (residue Ile21 amide 1H-15N, Free PHD vs PHD+peptide): 0.1438
- CSP Ile21, OC9 vs OC9 L3A (residue Ile21 amide, PHD+OC9 vs PHD+OC9 L3A): 0.0277
- CSP Ile45 (residue Ile45 amide 1H-15N, Free PHD vs PHD+peptide): 0.1010
- CSP Ile45, OC9 vs OC9 L3A (residue Ile45 amide, PHD+OC9 vs PHD+OC9 L3A): 0.0202
- CSP Ile61 (residue Ile61 amide 1H-15N, Free PHD vs PHD+peptide): 0.1437
- CSP Ile61, OC9 vs OC9 L3A (residue Ile61 amide, PHD+OC9 vs PHD+OC9 L3A): 0.0065
- CSP Leu9 (residue Leu9 amide 1H-15N, Free PHD vs PHD+peptide): 0.1892
- CSP Leu9, OC9 vs OC9 L3A (residue Leu9 amide, PHD+OC9 vs PHD+OC9 L3A): 0.0129
- CSP Leu12 (residue Leu12 amide 1H-15N, Free PHD vs PHD+peptide): 0.1747
- CSP Leu12, OC9 vs OC9 L3A (residue Leu12 amide, PHD+OC9 vs PHD+OC9 L3A): 0.0115
- CSP Leu47 (residue Leu47 amide 1H-15N, Free PHD vs PHD+peptide): 0.1015
- CSP Leu47, OC9 vs OC9 L3A (residue Leu47 amide, PHD+OC9 vs PHD+OC9 L3A): 0.0102
- CSP Leu56 (residue Leu56 amide 1H-15N, Free PHD vs PHD+peptide): 0.0523
- CSP Leu56, OC9 vs OC9 L3A (residue Leu56 amide, PHD+OC9 vs PHD+OC9 L3A): 0.0102
- CSP Lys41 (residue Lys41 amide 1H-15N, Free PHD vs PHD+peptide): 0.1015
- CSP Lys41, OC9 vs OC9 L3A (residue Lys41 amide, PHD+OC9 vs PHD+OC9 L3A): 0.0275
- CSP Lys63 (residue Lys63 amide 1H-15N, Free PHD vs PHD+peptide): 0.1309
- CSP Lys63, OC9 vs OC9 L3A (residue Lys63 amide, PHD+OC9 vs PHD+OC9 L3A): 0.0000
- CSP Lys64 (residue Lys64 amide 1H-15N, Free PHD vs PHD+peptide): 0.0250
- CSP Lys64, OC9 vs OC9 L3A (residue Lys64 amide, PHD+OC9 vs PHD+OC9 L3A): 0.0034
- CSP Met20 (residue Met20 amide 1H-15N, Free PHD vs PHD+peptide): 0.3554
- CSP Met20, OC9 vs OC9 L3A (residue Met20 amide, PHD+OC9 vs PHD+OC9 L3A): 0.0065
- CSP Met25 (residue Met25 amide 1H-15N, Free PHD vs PHD+peptide): 0.7126
- CSP Met25, OC9 vs OC9 L3A (residue Met25 amide, PHD+OC9 vs PHD+OC9 L3A): 0.0388
- CSP Met62 (residue Met62 amide 1H-15N, Free PHD vs PHD+peptide): 0.0950
- CSP Met62, OC9 vs OC9 L3A (residue Met62 amide, PHD+OC9 vs PHD+OC9 L3A): 0.0055
- CSP Phe19 (residue Phe19 amide 1H-15N, Free PHD vs PHD+peptide): 0.3115
- CSP Phe19, OC9 vs OC9 L3A (residue Phe19 amide, PHD+OC9 vs PHD+OC9 L3A): 0.0174
- CSP Phe30 (residue Phe30 amide 1H-15N, Free PHD vs PHD+peptide): 0.2578
- CSP Phe30, OC9 vs OC9 L3A (residue Phe30 amide, PHD+OC9 vs PHD+OC9 L3A): 0.0115
- CSP Ser3 (residue Ser3 amide 1H-15N, Free PHD vs PHD+peptide): 0.0045
- CSP Ser3, OC9 vs OC9 L3A (residue Ser3 amide, PHD+OC9 vs PHD+OC9 L3A): 0.0000
- CSP Ser33 (residue Ser33 amide 1H-15N, Free PHD vs PHD+peptide): 0.1165
- CSP Ser33, OC9 vs OC9 L3A (residue Ser33 amide, PHD+OC9 vs PHD+OC9 L3A): 0.0065
- CSP Ser60 (residue Ser60 amide 1H-15N, Free PHD vs PHD+peptide): 0.0496
- CSP Ser60, OC9 vs OC9 L3A (residue Ser60 amide, PHD+OC9 vs PHD+OC9 L3A): 0.0034
- CSP Thr17 (residue Thr17 amide 1H-15N, Free PHD vs PHD+peptide): 0.2647
- CSP Thr17, OC9 vs OC9 L3A (residue Thr17 amide, PHD+OC9 vs PHD+OC9 L3A): 0.0068
- CSP Trp29 (residue Trp29 amide 1H-15N, Free PHD vs PHD+peptide): 0.3312
- CSP Trp29, OC9 vs OC9 L3A (residue Trp29 amide, PHD+OC9 vs PHD+OC9 L3A): 0.0599
- CSP Tyr7 (residue Tyr7 amide 1H-15N, Free PHD vs PHD+peptide): 0.2566
- CSP Tyr7, OC9 vs OC9 L3A (residue Tyr7 amide, PHD+OC9 vs PHD+OC9 L3A): 0.0115
- CSP Tyr14 (residue Tyr14 amide 1H-15N, Free PHD vs PHD+peptide): 0.3127
- CSP Tyr14, OC9 vs OC9 L3A (residue Tyr14 amide, PHD+OC9 vs PHD+OC9 L3A): 0.0065
- CSP Tyr48 (residue Tyr48 amide 1H-15N, Free PHD vs PHD+peptide): 0.8682
- CSP Tyr48, OC9 vs OC9 L3A (residue Tyr48 amide, PHD+OC9 vs PHD+OC9 L3A): 0.0765
- CSP Val4 (residue Val4 amide 1H-15N, Free PHD vs PHD+peptide): 0.0240
- CSP Val4, OC9 vs OC9 L3A (residue Val4 amide, PHD+OC9 vs PHD+OC9 L3A): 0.0068
- CSP Val6 (residue Val6 amide 1H-15N, Free PHD vs PHD+peptide): 0.1640
- CSP Val6, OC9 vs OC9 L3A (residue Val6 amide, PHD+OC9 vs PHD+OC9 L3A): 0.0055
- CSP Val16 (residue Val16 amide 1H-15N, Free PHD vs PHD+peptide): 0.3687
- CSP Val16, OC9 vs OC9 L3A (residue Val16 amide, PHD+OC9 vs PHD+OC9 L3A): 0.0230
- CSP Val35 (residue Val35 amide 1H-15N, Free PHD vs PHD+peptide): 0.0569
- CSP Val35, OC9 vs OC9 L3A (residue Val35 amide, PHD+OC9 vs PHD+OC9 L3A): 0.0102
- CSP Val37 (residue Val37 amide 1H-15N, Free PHD vs PHD+peptide): 0.0783
- CSP Val37, OC9 vs OC9 L3A (residue Val37 amide, PHD+OC9 vs PHD+OC9 L3A): 0.0065
- CSP Val55 (residue Val55 amide 1H-15N, Free PHD vs PHD+peptide): 0.0206
- CSP Val55, OC9 vs OC9 L3A (residue Val55 amide, PHD+OC9 vs PHD+OC9 L3A): 0.0055
Compound: CC(C)[C@@H]1NC(=O)[C@H](CO)NC(=O)[C@@H]2CCCN2C(=O)[C@H](Cc2ccc(O)cc2)NC(=O)[C@@H]2CCCN2C(=O)[C@H](Cc2c[nH]cn2)NC(=O)[C@H]([C@@H](C)O)NC(=O)[C@H](C)NC(=O)[C@H](Cc2ccc(O)cc2)NC(=O)[C@H](Cc2ccc(O)cc2)NC(=O)CSC[C@@H](C(N)=O)NC(=O)[C@H]([C@@H](C)O)NC(=O)[C@H](CCCNC(=N)N)NC(=O)[C@H](Cc2ccccc2)NC1=O [L3A] (HELM PEPTIDE1{[O=C(C[*:3])[*:2]].Y.Y.A.T.H.P.Y.P.S.V.F.R.T.C.[am]}$PEPTIDE1,PEPTIDE1,1:R3-15:R3$$$V2.0; C-terminus assumed)
